Key:
Format in all cases: in vivo
[1] = test system: Alopecurus myosuroides (ALOMY); experiment: Pre-emergence herbicidal activity, glasshouse pot test; settings: Rate 500 g/ha; sprayed after one day cultivation, evaluated 20 days later; 100=total damage to plant, 0=no damage to plant
Description: (§1) Monocotyledonous and dicotyledonous test plants were sown in standard soil in pots. After cultivation for one day (pre-emergence) or after 10 days cultivation (post-emergence) under controlled conditions in a glasshouse, the plants were sprayed with an aqueous spray solution derived from the formulation of the technical active ingredient in 0.6 ml acetone and 45 ml formulation solution containing 10.6% Emulsogen EL (Registry number 61791-12-6), 42.2% N-methyl pyrrolidone, 42.2% dipropylene glycol monomethyl ether (Registry number 34590-94-8) and 0.2% X-77 (Registry number 11097-66-8). The test plants were then grown in a greenhouse under optimum conditions until, 15 days later for post-emergence and 20 days for pre-emergence, the test was evaluated (100=total damage to plant; 0=no damage to plant). Test Plants: Alopecurus myosuroides (ALOMY), Avena fatua (AVEFA), Lolium perenne (LOLPE), Setaria faberi (SETFA), Digitaria sanguinalis (DIGSA), Echinochloa crus-galli (ECHCG)

Avena fatua (AVEFA) [2] = experiment: as above; settings: Rate 500 g/ha; sprayed after one day cultivation, evaluated 20 days later; 100=total damage to plant, 0=no damage to plant
Description: as §1

[3] = test system: Digitaria sanguinalis (DIGSA); experiment: as above; settings: Rate 500 g/ha; sprayed after one day cultivation, evaluated 20 days later; 100=total damage to plant, 0=no damage to plant
Description: as §1

[4] = test system: Echinochloa crus-galli (ECHCG); experiment: as above; settings: Rate 500 g/ha; sprayed after one day cultivation, evaluated 20 days later; 100=total damage to plant, 0=no damage to plant
Description: as §1

Lolium perenne (LOLPE) [5] = experiment: as above; settings: Rate 500 g/ha; sprayed after one day cultivation, evaluated 20 days later; 100=total damage to plant, 0=no damage to plant
Description: as §1

Setaria faberi (SETFA) [6] = experiment: as above; settings: Rate 500 g/ha; sprayed after one day cultivation, evaluated 20 days later; 100=total damage to plant, 0=no damage to plant
Description: as §1

[7] = test system: Alopecurus myosuroides (ALOMY); experiment: Post-emergence herbicidal activity, glasshouse pot test; settings: Rate 500 g/ha; sprayed after 10 days cultivation, evaluated 15 days later; 100=total damage to plant, 0=no damage to plant
Description: as §1

Avena fatua (AVEFA) [8] = experiment: as above; settings: Rate 500 g/ha; sprayed after 10 days cultivation, evaluated 15 days later; 100=total damage to plant, 0=no damage to plant
Description: as §1

[9] = test system: Digitaria sanguinalis (DIGSA); experiment: as above; settings: Rate 500 g/ha; sprayed after 10 days cultivation, evaluated 15 days later; 100=total damage to plant, 0=no damage to plant
Description: as §1

[10] = test system: Echinochloa crus-galli (ECHCG); experiment: as above; settings: Rate 500 g/ha; sprayed after 10 days cultivation, evaluated 15 days later; 100=total damage to plant, 0=no damage to plant
Description: as §1

Lolium perenne (LOLPE) [11] = experiment: as above; settings: Rate 500 g/ha; sprayed after 10 days cultivation, evaluated 15 days later; 100=total damage to plant, 0=no damage to plant
Description: as §1

Setaria faberi (SETFA) [12] = experiment: as above; settings: Rate 500 g/ha; sprayed after 10 days cultivation, evaluated 15 days later; 100=total damage to plant, 0=no damage to plant
Description: as §1

## CCc1ccc(-c2ccc(Cl)cc2Cl)cc1C1=C(SC)C(C)(C)OC(C)(C)C1=O [Compound A2]
[1]
  Pre-Emergence Activity ALOMY: 0
Avena fatua (AVEFA) [2]
  Pre-Emergence Activity AVEFA: 0
[3]
  Pre-Emergence Activity DIGSA: 20
[4]
  Pre-Emergence Activity ECHCG: 20
Lolium perenne (LOLPE) [5]
  Pre-Emergence Activity LOLPE: 20
Setaria faberi (SETFA) [6]
  Pre-Emergence Activity SETFA: 10
[7]
  Post-Emergence Activity ALOMY: 0
Avena fatua (AVEFA) [8]
  Post-Emergence Activity AVEFA: 0
[9]
  Post-Emergence Activity DIGSA: 0
[10]
  Post-Emergence Activity ECHCG: 20
Lolium perenne (LOLPE) [11]
  Post-Emergence Activity LOLPE: 0
Setaria faberi (SETFA) [12]
  Post-Emergence Activity SETFA: 10

## CCc1ccc(-c2ccc(Cl)cc2Cl)cc1C1=C(Cl)C(C)(C)OC(C)(C)C1=O [Compound A1]
[1]
  Pre-Emergence Activity ALOMY: 10
Avena fatua (AVEFA) [2]
  Pre-Emergence Activity AVEFA: 0
[3]
  Pre-Emergence Activity DIGSA: 70
[4]
  Pre-Emergence Activity ECHCG: 0
Lolium perenne (LOLPE) [5]
  Pre-Emergence Activity LOLPE: 20
Setaria faberi (SETFA) [6]
  Pre-Emergence Activity SETFA: 0
[7]
  Post-Emergence Activity ALOMY: 40
Avena fatua (AVEFA) [8]
  Post-Emergence Activity AVEFA: 50
[9]
  Post-Emergence Activity DIGSA: 100
[10]
  Post-Emergence Activity ECHCG: 100
Lolium perenne (LOLPE) [11]
  Post-Emergence Activity LOLPE: 60
Setaria faberi (SETFA) [12]
  Post-Emergence Activity SETFA: 60

— patent US20110190127A1, “NOVEL HERBICIDES” (SYNGENTA CROP PROTECTION, INC., priority 2008, published 2011)
